# Results from patent publication US7407982B2, “Oligo or polyalkylene glycol-coupled thrombin inhibitors” (HaemoSys GmbH, priority 2001, dated 2008).
# Read-outs that look alike come from different tables or passages of the source.
# How the values were obtained:
# [1] = molecular target: T1, human α-thrombin (Homo sapiens, UniProt P00734); assay: Determination of Ki for thrombin inhibition (chromogenic or fluorogenic substrate, Dixon); assay type: biochemical; details: for KiTrypsin/KiThrombin: Example 8, selectivity quotient
# T1 construct: 50 μl human α-thrombin (Kordia); purchased Kordia
# Experimental: The Ki values are the average values of at least three calculations.
# For determining the thrombin inhibiting effect of all reversibly binding inhibitors and inhibitor conjugates with inhibiting constants smaller than 1 nM, a fluorescence spectrometer (LS50B from the company Perkin Elmer) was used. […] The Ki values are the average values of at least three calculations.
# [2] = molecular target: T2, trypsin (Bos taurus, UniProt P00760); assay: Ki values for trypsin, determined analogously; assay type: biochemical
# T2 sequence (P00760 24-246): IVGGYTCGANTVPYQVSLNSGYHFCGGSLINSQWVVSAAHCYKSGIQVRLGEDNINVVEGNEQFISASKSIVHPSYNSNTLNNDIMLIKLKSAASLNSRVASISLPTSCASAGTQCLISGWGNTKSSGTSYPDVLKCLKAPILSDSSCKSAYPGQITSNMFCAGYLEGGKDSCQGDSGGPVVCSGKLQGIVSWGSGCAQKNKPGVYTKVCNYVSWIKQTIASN
# Experimental: The Ki values for trypsin were determined analogously.
# For optimizing the inhibitor conjugates, in particular of the following Examples 1 and 2, suitable groups R1 were sought which allow as strong a thrombin inhibition as possible. For examining the selectivity of the compounds, the inhibiting constants for trypsin were determined as well. The higher the quotient [KiTrypsin/KiThrombin], the more selectively the compound functions as a thrombin inhibitor. In order to facilitate the synthesis, this optimization was first carried out without coupling a polyalkylene glycol group to inhibitor molecules of formula (II) as listed in Table I. These compounds, which are active as thrombin inhibitors themselves, can be used as synthetic intermediates for the inhibitor conjugates of formula (I). As a central component, a glycyl-prolyl-dipeptide was consistently incorporated into the inhibitors.
# [3] = Table I, formula (II) compounds
# [4] = Table 2, formula (III) compounds
# [5] = Example 8, read-out: KiThrombin
"Ki [1, 3] [nM]","Ki Trypsin/Ki Thrombin ([1]; Table I, selectivity quotient)",Compound,other results
0.44,45,COc1ccc(S(=O)(=O)NCC(=O)N2CCC[C@H]2C(=O)NCc2ccc(C(=N)N)cc2)cc1Cl [1a],
,,COc1ccc(S(=O)(=O)NC(CC(=O)NCc2cccc(C#N)c2)C(=O)N2CCCC2C(=O)NCc2ccc(C(=N)N)cc2)cc1 (stereo not shown) [compound 46],"Ki [1, 4]: 0.061 nM; Ki Trypsin/Ki Thrombin ([1]; Table 2, selectivity quotient): 1163"
13.6,0.22,N=C(N)c1ccc(CNC(=O)[C@@H]2CCCN2C(=O)CNS(=O)(=O)CC2CCCCC2)cc1 [compound 20],"Ki [2, 3]: 3.1 nM"
,,"COc1ccc(S(=O)(=O)NC(CC(=O)O)C(=O)N2CCCC2C(=O)NCc2ccc(C(=N)N)cc2)cc1 (stereo not drawn) [No. 55, 4-Methoxy-benezenesulfonyl-Asp-Pro-4-amidinobenzylamide]","KiTrypsin/KiThrombin [1]: 48; Ki [1, 5]: 1.6 nM"
16.9,1.1,Cc1cc(Cl)cc(Cl)c1S(=O)(=O)NCC(=O)N1CCC[C@H]1C(=O)NCc1ccc(C(=N)N)cc1 [compound 25],
,,COc1ccc(S(=O)(=O)N[C@@H](CC(=O)NCc2ccccc2)C(=O)N2CCC[C@H]2C(=O)NCc2ccc(C(=N)N)cc2)cc1 [compound 47],"Ki [1, 4]: 0.065 nM; Ki Trypsin/Ki Thrombin ([1]; Table 2, selectivity quotient): 600; Ki [2, 4]: 39 nM"
,,"COc1ccc(S(=O)(=O)NC(CCCCN)C(=O)N2CCCC2C(=O)NCc2ccc(C(=N)N)cc2)cc1 (stereo not drawn) [No. 53, 4-Methoxy-benezenesulfonyl-Lys-Pro-4-amidinobenzylamide]","KiTrypsin/KiThrombin [1]: 112; Ki [1, 5]: 0.73 nM"
30.3,1.2,Cc1c(C)c(S(=O)(=O)NCC(=O)N2CCC[C@H]2C(=O)NCc2ccc(C(=N)N)cc2)c(C)c2c1OC(C)(C)C2 [compound 28],"Ki [2, 3]: 37.1 nM"
,,N=C(N)c1ccc(CNC(=O)[C@@H]2CCCN2C(=O)[C@H](CN)NS(=O)(=O)c2ccc3ccccc3c2)cc1 [compound 37],"Ki [1, 4]: 2.4 nM; Ki Trypsin/Ki Thrombin ([1]; Table 2, selectivity quotient): 4.3; Ki [2, 4]: 10.3 nM"
,,COC(=O)C[C@H](NS(=O)(=O)c1ccc(OC)cc1)C(=O)N1CCC[C@H]1C(=O)NCc1ccc(C(=N)N)cc1 [compound 52],"Ki [1, 4]: 0.68 nM; Ki Trypsin/Ki Thrombin ([1]; Table 2, selectivity quotient): 31; Ki [2, 4]: 21.4 nM"
12.7,2.2,Cc1c(C)c(C)c(S(=O)(=O)NCC(=O)N2CCC[C@H]2C(=O)NCc2ccc(C(=N)N)cc2)c(C)c1C [compound 16],
7.8,0.5,N=C(N)c1ccc(CNC(=O)[C@@H]2CCCN2C(=O)CNS(=O)(=O)c2cccc3ccccc23)cc1 [compound 10],
15.1,1.2,N=C(N)c1ccc(CNC(=O)[C@@H]2CCCN2C(=O)CNS(=O)(=O)c2ccc(Cl)cc2Cl)cc1 [compound 21],
2.5,2.3,N=C(N)c1ccc(CNC(=O)[C@@H]2CCCN2C(=O)CNS(=O)(=O)c2ccc(Cl)c(Cl)c2)cc1 [4a],
115,0.11,N=C(N)c1ccc(CNC(=O)[C@@H]2CCCN2C(=O)CNS(=O)(=O)c2ccc([N+](=O)[O-])cc2)cc1 [compound 35],
,,N=C(N)c1ccc(CNC(=O)C2CCCN2C(=O)C(CO)NS(=O)(=O)c2ccc3ccccc3c2)cc1 (stereo not shown) [compound 38],"Ki [1, 4]: 2.54 nM; Ki Trypsin/Ki Thrombin ([1]; Table 2, selectivity quotient): 10.9"
,,N=C(N)c1ccc(CNC(=O)C2CCCN2C(=O)C(CC(N)=O)NS(=O)(=O)c2ccc3ccccc3c2)cc1 (stereo not shown) [compound 39],"Ki [1, 4]: 3.4 nM; Ki Trypsin/Ki Thrombin ([1]; Table 2, selectivity quotient): 11"
,,N=C(N)c1ccc(CNC(=O)[C@@H]2CCCN2C(=O)[C@@H](CC(N)=O)NS(=O)(=O)c2ccc3ccccc3c2)cc1 [compound 43],"Ki [1, 4]: 52.5 nM; Ki Trypsin/Ki Thrombin ([1]; Table 2, selectivity quotient): 0.42; Ki [2, 4]: 22.4 nM"
76,0.33,N#Cc1ccc(S(=O)(=O)NCC(=O)N2CCC[C@H]2C(=O)NCc2ccc(C(=N)N)cc2)cc1 [compound 34],
44.3,0.05,N=C(N)c1ccc(CNC(=O)[C@@H]2CCCN2C(=O)CNS(=O)(=O)/C=C/c2ccccc2)cc1 [compound 32],
13.4,2.5,Cc1cc(C)c(C)c(S(=O)(=O)NCC(=O)N2CCC[C@H]2C(=O)NCc2ccc(C(=N)N)cc2)c1C [compound 18],
10.8,0.96,N=C(N)c1ccc(CNC(=O)[C@@H]2CCCN2C(=O)CNS(=O)(=O)c2ccccc2)cc1 [compound 15],
2.8,2.9,Cc1cccc(S(=O)(=O)NCC(=O)N2CCC[C@H]2C(=O)NCc2ccc(C(=N)N)cc2)c1 [4b],

"Ki [1, 3] [nM]","Ki Trypsin/Ki Thrombin ([1]; Table I, selectivity quotient)",Compound,other results
5.9,3.3,N=C(N)c1ccc(CNC(=O)[C@@H]2CCCN2C(=O)CNS(=O)(=O)c2cc(Cl)c(Cl)cc2Cl)cc1 [compound 9],
,,N=C(N)c1ccc(CNC(=O)C2CCCN2C(=O)C(CC(=O)O)NS(=O)(=O)c2ccc3ccccc3c2)cc1 (stereo not shown) [compound 42],"Ki [1, 4]: 24.1 nM; Ki Trypsin/Ki Thrombin ([1]; Table 2, selectivity quotient): 2.9"
16.4,0.71,N=C(N)c1ccc(CNC(=O)[C@@H]2CCCN2C(=O)CNS(=O)(=O)c2ccc(Cl)c(Cl)c2Cl)cc1 [compound 23],
,,N=C(N)c1ccc(CNC(=O)C2CCCN2C(=O)C(CCC(N)=O)NS(=O)(=O)c2ccc3ccccc3c2)cc1 (stereo not shown) [compound 40],"Ki [1, 4]: 3.8 nM; Ki Trypsin/Ki Thrombin ([1]; Table 2, selectivity quotient): 4.2"
8.5,6.8,N=C(N)c1ccc(CNC(=O)[C@@H]2CCCN2C(=O)CNS(=O)(=O)c2ccc3ccccc3c2)cc1 [compound 12],"Ki Trypsin/Ki Thrombin ([1]; Table 2, selectivity quotient): 6.8"
19.3,0.98,N=C(N)c1ccc(CNC(=O)[C@@H]2CCCN2C(=O)CNS(=O)(=O)c2ccccc2Cl)cc1 [compound 27],
10.5,1.1.,Cc1cc(S(=O)(=O)NCC(=O)N2CCC[C@H]2C(=O)NCc2ccc(C(=N)N)cc2)c(Cl)cc1Cl [compound 14],
4.7,4.2,COc1ccc(S(=O)(=O)NCC(=O)N2CCC[C@H]2C(=O)NCc2ccc(C(=N)N)cc2)cc1OC [compound 8],
,,"N=C(N)N1CCC(CNC(=O)C2CCCN2C(=O)C(CC2CCCCC2)NCC(=O)O)CC1 [H-D-N(CH2—COOH)Cha-Pro-4-(amidomethyl)-N(amidino)piperidine, reference compound]","KiTrypsin/KiThrombin [1]: 173; Ki [1, 5]: 1.3 nM"
16.6,0.80,Cc1cc(C)c(S(=O)(=O)NCC(=O)N2CCC[C@H]2C(=O)NCc2ccc(C(=N)N)cc2)c(C)c1 [compound 24],
12.7,0.87,N=C(N)c1ccc(CNC(=O)[C@@H]2CCCN2C(=O)CNS(=O)(=O)c2cccc(Cl)c2Cl)cc1 [compound 17],
16.1,0.88,Cc1ccc(S(=O)(=O)NCC(=O)N2CCC[C@H]2C(=O)NCc2ccc(C(=N)N)cc2)cc1 [compound 22],
0.64,20,COc1ccc(S(=O)(=O)NCC(=O)N2CCC[C@H]2C(=O)NCc2ccc(C(=N)N)cc2)cc1C [1b],
66,0.42,CCOc1ccc(S(=O)(=O)NCC(=O)N2CCC[C@H]2C(=O)NCc2ccc(C(=N)N)cc2)cc1 [33b],
10,2.7,N=C(N)c1ccc(CNC(=O)[C@@H]2CCCN2C(=O)CNS(=O)(=O)c2ccc(Cl)cc2)cc1 [compound 13],
38,0.42,N=C(N)c1ccc(CNC(=O)[C@@H]2CCCN2C(=O)CNS(=O)(=O)c2cccc([N+](=O)[O-])c2)cc1 [compound 30],
19.1,2.6,CCc1ccc(S(=O)(=O)NCC(=O)N2CCC[C@H]2C(=O)NCc2ccc(C(=N)N)cc2)cc1 [compound 26],
,,"N=C(N)c1ccc(CNC(=O)C2CCCN2C(=O)C(CC2CCCCC2)NCC(=O)O)cc1 [H-D-N(CH2—COOH)Cha-Pro-4-(amidino)benzylamide, reference compound]","KiTrypsin/KiThrombin [1]: 12; Ki [1, 5]: 0.3 nM"
48,0.47,N#Cc1cccc(S(=O)(=O)NCC(=O)N2CCC[C@H]2C(=O)NCc2ccc(C(=N)N)cc2)c1 [33a],
,,COc1ccc(S(=O)(=O)N[C@@H](CC(=O)O)C(=O)N2CCC[C@H]2C(=O)NCc2ccc(C(=N)N)cc2)cc1 [compound 55],"Ki [1, 4]: 1.6 nM; Ki Trypsin/Ki Thrombin ([1]; Table 2, selectivity quotient): 48"
,,4-Methoxy-benezenesulfonyl-Asn(4-[MeO-PEG5000-CH2CH2CO—NHCH2]-benzyl-Pro-4-amidinobenzylamide,"Ki [1, 5]: 0.19 nM"
32.2,0.32,CC(C)(C)c1ccc(S(=O)(=O)NCC(=O)N2CCC[C@H]2C(=O)NCc2ccc(C(=N)N)cc2)cc1 [compound 29],
8.5,0.4,N=C(N)c1ccc(CNC(=O)[C@@H]2CCCN2C(=O)CNS(=O)(=O)c2cc(Cl)cc(Cl)c2)cc1 [compound 11],

Compound,"Ki [1, 3] [nM]","Ki Trypsin/Ki Thrombin ([1]; Table I, selectivity quotient)",other results
N=C(N)c1ccc(CNC(=O)[C@@H]2CCCN2C(=O)CNS(=O)(=O)Cc2ccccc2)cc1 [compound 6],3.6,2.1,
